Test results as given in patent US7550425B2, “Diuretic peptide conjugates” (Zealand Pharma A/S, priority 2000, dated 2009).

Tested on: chronically instrumented rats
Assay: Twelve-hour i.v. infusion with servo-controlled volume replacement (acute tachyphylaxis)
Format: in vivo, rat
Method: To evaluate whether acute tachyphylaxis develops during i.v. treatment with Compound 1, an additional series of experiments were performed. Chronically instrumented rats were infused with vehicle (150 mM glucose) or Compound 1 (1 nmol/kg/min) for twelve hours while water balance was maintained using a computer-driven, servo-controlled i.v. volume replacement system^[2]. Acute tachyphylaxis has been observed during repeated i.v. dosing of the vasopressin antagonist SKF 101926 in conscious dogs^[12] and tolerance during chronic treatment has been reported for the selective V2-receptor antagonist OPC-31260 ^[13].

Ac-RYYRWKKKKKKK-NH2 [Compound 1, Ac-RYYRWKKKKKKK-NH2]
tubular water reabsorption and haemodynamics (i.v. infusion 1 nmol/kg/min): inhibited tubular water reabsorption without concomitant changes in arterial blood pressure, heart rate, renal blood flow, glomerular filtration rate or proximal tubular reabsorption
duration of aquaretic response (i.v. infusion 1 nmol/kg/min for twelve hours): sustained aquaretic response lasting the entire 12-hour infusion period
acute tachyphylaxis (i.v. infusion 1 nmol/kg/min, 12 hours): no acute tachyphylaxis develops within the first 12 hours of treatment
magnitude of aquaretic response versus OPC-31260 (i.v. infusion 1 nmol/kg/min, FIG. 9): aquaretic response of similar magnitude to the response seen with maximal doses of the selective vasopressin type-2 receptor antagonist OPC-31260
